Paper PMC9090415, “Discovery of small molecule inhibitors of Plasmodium falciparum apicoplast DNA polymerase” (Journal of Enzyme Inhibition and Medicinal Chemistry, 2022)
pIC50: −log10 of the molar value.

Target: P. falciparum apicoplast DNA polymerase (Pf-apPOL) (Plasmodium falciparum, UniProt Q8ILY1)
Test: Fluorescence-based high-throughput DNA polymerase assay (molecular beacon), primary screen and dose-response
Assay type: biochemical
Summary of the method: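 Single-point screening used 10 µM compound with 20 nM polymerase, 20 nM hairpin substrate and 6 µM dNTPs for 90 min at 25 °C. Confirmatory titrations (2.5–80 µM) followed fluorescence at three times, and IC50 was derived from a fit including a cooperativity term n.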

[1] = supplemental file 2, sheet IC50 nontoxic compounds; Pf-apPOL

Chain of P. falciparum apicoplast DNA polymerase (Pf-apPOL) (Q8ILY1 entry or part of it): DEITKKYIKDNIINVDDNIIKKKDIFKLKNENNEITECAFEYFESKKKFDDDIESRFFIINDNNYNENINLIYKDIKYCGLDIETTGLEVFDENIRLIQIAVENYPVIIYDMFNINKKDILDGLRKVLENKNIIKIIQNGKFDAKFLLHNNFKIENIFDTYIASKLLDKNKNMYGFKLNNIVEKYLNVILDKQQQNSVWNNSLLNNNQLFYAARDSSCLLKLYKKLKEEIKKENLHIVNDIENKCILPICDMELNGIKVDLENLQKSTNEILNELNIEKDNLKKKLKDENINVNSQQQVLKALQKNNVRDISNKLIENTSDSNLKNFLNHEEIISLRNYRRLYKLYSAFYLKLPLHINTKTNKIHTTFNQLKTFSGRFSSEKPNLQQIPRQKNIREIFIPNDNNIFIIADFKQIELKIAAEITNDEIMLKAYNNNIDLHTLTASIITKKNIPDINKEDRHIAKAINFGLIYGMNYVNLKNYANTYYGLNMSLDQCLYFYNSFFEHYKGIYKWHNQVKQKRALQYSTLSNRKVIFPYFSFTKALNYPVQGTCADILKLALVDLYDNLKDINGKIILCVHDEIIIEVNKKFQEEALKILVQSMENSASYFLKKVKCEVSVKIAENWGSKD

SMILES: CCCCOC(=O)CCCCCN1C(=O)C(=Cc2ccc(OC)cc2)SC1=S [Molecule 75, CCCCOC(=O)CCCCCN1C(=S)SC(=Cc2ccc(cc2)OC)C1=O]
- % inhibition Apo pol 10' (DRC-1; 10'; concentration 2.5): -1.1804%
- % inhibition Apo pol 10' (DRC-1; 10'; concentration 5): 1.705%
- % inhibition Apo pol 10' (DRC-1; 10'; concentration 10): 11.988%
- % inhibition Apo pol 10' (DRC-1; 10'; concentration 20): 12.7699%
- % inhibition Apo pol 10' (DRC-1; 10'; concentration 40): 17.437%
- % inhibition Apo pol 10' (DRC-1; 10'; concentration 80): 85.0535%
- % inhibition Apol 90' (DRC-1; 90'; concentration 2.5): 3.6918%
- % inhibition Apol 90' (DRC-1; 90'; concentration 5): 7.9015%
- % inhibition Apol 90' (DRC-1; 90'; concentration 10): 19.2889%
- % inhibition Apol 90' (DRC-1; 90'; concentration 20): 19.2951%
- % inhibition Apol 90' (DRC-1; 90'; concentration 40): 23.7139%
- % inhibition Apol 90' (DRC-1; 90'; concentration 80): 84.541%
- % inhibition apPOL 180' (DRC-1; 180'; concentration 2.5): 6.465%
- % inhibition apPOL 180' (DRC-1; 180'; concentration 5): 11.5498%
- % inhibition apPOL 180' (DRC-1; 180'; concentration 10): 23.7615%
- % inhibition apPOL 180' (DRC-1; 180'; concentration 20): 23.8231%
- % inhibition apPOL 180' (DRC-1; 180'; concentration 40): 28.3946%
- % inhibition apPOL 180' (DRC-1; 180'; concentration 80): 81.7032%
- % inhibition Apo pol 5' (DRC-2; 5'; concentration 2.5): -2%
- % inhibition Apo pol 5' (DRC-2; 5'; concentration 5): 3%
- % inhibition Apo pol 5' (DRC-2; 5'; concentration 10): 20%
- % inhibition Apo pol 5' (DRC-2; 5'; concentration 20): 30%
- % inhibition Apo pol 5' (DRC-2; 5'; concentration 40): 45%
- % inhibition Apo pol 5' (DRC-2; 5'; concentration 80): 46%
- % inhibition Apol 40' (DRC-2; 40'; concentration 2.5): -0.735%
- % inhibition Apol 40' (DRC-2; 40'; concentration 5): 5%
- % inhibition Apol 40' (DRC-2; 40'; concentration 10): 24%
- % inhibition Apol 40' (DRC-2; 40'; concentration 20): 42%
- % inhibition Apol 40' (DRC-2; 40'; concentration 40): 66%
- % inhibition Apol 40' (DRC-2; 40'; concentration 80): 69%
- % inhibition ApPOL 90' (DRC-2; 90'; concentration 2.5): -1%
- % inhibition ApPOL 90' (DRC-2; 90'; concentration 5): 6.48%
- % inhibition ApPOL 90' (DRC-2; 90'; concentration 10): 25%
- % inhibition ApPOL 90' (DRC-2; 90'; concentration 20): 43%
- % inhibition ApPOL 90' (DRC-2; 90'; concentration 40): 71%
- % inhibition ApPOL 90' (DRC-2; 90'; concentration 80): 74%
- % inhibition apPOL 180' (DRC-2; 180'; concentration 2.5): -5%
- % inhibition apPOL 180' (DRC-2; 180'; concentration 5): 0.541%
- % inhibition apPOL 180' (DRC-2; 180'; concentration 10): 18%
- % inhibition apPOL 180' (DRC-2; 180'; concentration 20): 40%
- % inhibition apPOL 180' (DRC-2; 180'; concentration 40): 76%
- % inhibition apPOL 180' (DRC-2; 180'; concentration 80): 79%
- DNA Pol (primary screen value of the 186 hits; unit not given; 90 min, 10 µM): 27
- DNA Pol (primary screen value, head "DNA Pol", unit not given; 90 min, 10 µM): 27

SMILES: CCCCOC(=O)CCCCCN1C(=O)C(=Cc2ccc(OC)cc2)SC1=S [Molecule 75]
- pIC50 [1]: 4.25

SMILES: CCOc1ccccc1-c1nc(-c2ccc(=O)[nH]c2)no1 [Molecule 76, CCOc1ccccc1c1onc(n1)c1ccc(=O)[nH]c1]
- DNA Pol ('DNA Pol'; screening value, unit not given; 90 min, 10 µM): 20
- % inhibition Apo pol 10' (DRC-1; 10'; concentration 2.5): 0.6967%
- % inhibition Apo pol 10' (DRC-1; 10'; concentration 5): 11.2745%
- % inhibition Apo pol 10' (DRC-1; 10'; concentration 10): 18.9586%
- % inhibition Apo pol 10' (DRC-1; 10'; concentration 20): 38.1067%
- % inhibition Apo pol 10' (DRC-1; 10'; concentration 40): 53.5893%
- % inhibition Apo pol 10' (DRC-1; 10'; concentration 80): 52.085%
- % inhibition Apol 90' (DRC-1; 90'; concentration 2.5): 1.791%
- % inhibition Apol 90' (DRC-1; 90'; concentration 5): 6.12%
- % inhibition Apol 90' (DRC-1; 90'; concentration 10): 9.377%
- % inhibition Apol 90' (DRC-1; 90'; concentration 20): 23.8682%
- % inhibition Apol 90' (DRC-1; 90'; concentration 40): 40.5664%
- % inhibition Apol 90' (DRC-1; 90'; concentration 80): 58.194%
- % inhibition apPOL 180' (DRC-1; 180'; concentration 2.5): 0.4069%
- % inhibition apPOL 180' (DRC-1; 180'; concentration 5): -0.1254%
- % inhibition apPOL 180' (DRC-1; 180'; concentration 10): 3.145%
- % inhibition apPOL 180' (DRC-1; 180'; concentration 20): 13.7998%
- % inhibition apPOL 180' (DRC-1; 180'; concentration 40): 29.3034%
- % inhibition apPOL 180' (DRC-1; 180'; concentration 80): 52.1842%
- % inhibition Apo pol 5' (DRC-2, 5', concentration 2.5): -5.31%
- % inhibition Apo pol 5' (DRC-2, 5', concentration 5): 5%
- % inhibition Apo pol 5' (DRC-2, 5', concentration 10): 19%
- % inhibition Apo pol 5' (DRC-2, 5', concentration 20): 30%
- % inhibition Apo pol 5' (DRC-2, 5', concentration 40): 44%
- % inhibition Apo pol 5' (DRC-2, 5', concentration 80): 29%
- % inhibition Apol 40' (DRC-2, 40', concentration 2.5): 0.0959%
- % inhibition Apol 40' (DRC-2, 40', concentration 5): 6.65%
- % inhibition Apol 40' (DRC-2, 40', concentration 10): 18%
- % inhibition Apol 40' (DRC-2, 40', concentration 20): 30%
- % inhibition Apol 40' (DRC-2, 40', concentration 40): 50%
- % inhibition Apol 40' (DRC-2, 40', concentration 80): 55%
- % inhibition ApPOL 90' (DRC-2, 90', concentration 2.5): -0.625%
- % inhibition ApPOL 90' (DRC-2, 90', concentration 5): 5%
- % inhibition ApPOL 90' (DRC-2, 90', concentration 10): 15%
- % inhibition ApPOL 90' (DRC-2, 90', concentration 20): 26%
- % inhibition ApPOL 90' (DRC-2, 90', concentration 40): 48%
- % inhibition ApPOL 90' (DRC-2, 90', concentration 80): 56%
- % inhibition apPOL 180' (DRC-2, 180', concentration 2.5): -3%
- % inhibition apPOL 180' (DRC-2, 180', concentration 5): 1.18%
- % inhibition apPOL 180' (DRC-2, 180', concentration 10): 8%
- % inhibition apPOL 180' (DRC-2, 180', concentration 20): 16%
- % inhibition apPOL 180' (DRC-2, 180', concentration 40): 37%
- % inhibition apPOL 180' (DRC-2, 180', concentration 80): 54%
- % inhibition Apo pol 5' (conc 5 (unit not given); 5'; DRC-2): 5%
- % inhibition ApPOL 90' (conc 5 (unit not given); 90'; DRC-2): 5%
- % inhibition Apo pol 5' (conc 20 (unit not given); 5'; DRC-2): 30%
- % inhibition Apol 40' (conc 20 (unit not given); 40'; DRC-2): 30%
- DNA Pol (primary screen hit value, DNA Pol (186 hits); 90 min, 10 µM): 20

SMILES: CCOc1ccccc1-c1nc(-c2ccc(=O)[nH]c2)no1 [Molecule 76]
- pIC50 [1]: 4.41
